Measured values as given in US11040981B2, “Pyrrolotriazine compounds and methods of inhibiting TAM kinases” (Syros Pharmaceuticals, Inc., priority 2017, dated 2021).

Key:
AXL = target: T1, AXL (Homo sapiens, UniProt P30530); experiment: TR-FRET kinase activity assay, AXL; type: biochemical; conditions: ATP at Km, 60 minutes
T1 sequence (P30530 26-894): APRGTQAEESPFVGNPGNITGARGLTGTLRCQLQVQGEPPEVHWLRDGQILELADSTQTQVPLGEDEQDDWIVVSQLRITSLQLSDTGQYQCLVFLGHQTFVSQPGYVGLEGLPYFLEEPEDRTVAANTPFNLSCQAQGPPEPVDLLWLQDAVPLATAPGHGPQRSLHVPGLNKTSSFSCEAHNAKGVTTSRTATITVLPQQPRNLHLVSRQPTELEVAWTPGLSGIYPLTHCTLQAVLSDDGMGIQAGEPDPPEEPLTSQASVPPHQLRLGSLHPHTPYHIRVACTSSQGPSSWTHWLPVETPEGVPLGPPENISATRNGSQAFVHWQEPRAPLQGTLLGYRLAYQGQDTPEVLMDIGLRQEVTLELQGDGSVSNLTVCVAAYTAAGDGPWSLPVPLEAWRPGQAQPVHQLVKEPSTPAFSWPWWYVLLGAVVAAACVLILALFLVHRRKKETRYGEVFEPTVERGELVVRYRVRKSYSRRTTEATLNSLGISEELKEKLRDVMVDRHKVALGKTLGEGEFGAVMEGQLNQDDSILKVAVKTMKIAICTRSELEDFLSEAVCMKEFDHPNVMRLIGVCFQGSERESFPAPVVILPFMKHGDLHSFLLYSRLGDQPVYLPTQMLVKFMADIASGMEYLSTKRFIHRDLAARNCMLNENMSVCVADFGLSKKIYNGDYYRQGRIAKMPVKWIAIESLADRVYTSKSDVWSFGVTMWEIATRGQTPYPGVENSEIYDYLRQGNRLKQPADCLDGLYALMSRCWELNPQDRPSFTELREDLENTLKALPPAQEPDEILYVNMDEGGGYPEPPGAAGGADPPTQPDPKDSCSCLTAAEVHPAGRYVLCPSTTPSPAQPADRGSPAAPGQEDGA
Procedure, shortened: (§1)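 Each kinase phosphorylated a fluorescent-labelled tyrosine peptide in 50 mM HEPES pH 7.5, 10 mM MgCl2, 1 mM EGTA, 0.01% Brij 35, 1 mM DTT at RT, with ATP at Km for that enzyme. After 60 min, EDTA quench and Eu-anti-phosphotyrosine antibody (30 min, dark); IC50 from TR-FRET decrease.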

MERTK = target: T2, MERTK (Homo sapiens, UniProt Q12866); experiment: TR-FRET kinase activity assay, MERTK; type: biochemical; conditions: for IC50: TR-FRET activity assay, ATP at Km, 60 minutes, read-out: Mer IC50; for FLT3/Mer ratio (FLT3 IC50/Mer IC50): ratio calculated as FLT3 IC50/Mer IC50
T2 sequence (Q12866 21-999): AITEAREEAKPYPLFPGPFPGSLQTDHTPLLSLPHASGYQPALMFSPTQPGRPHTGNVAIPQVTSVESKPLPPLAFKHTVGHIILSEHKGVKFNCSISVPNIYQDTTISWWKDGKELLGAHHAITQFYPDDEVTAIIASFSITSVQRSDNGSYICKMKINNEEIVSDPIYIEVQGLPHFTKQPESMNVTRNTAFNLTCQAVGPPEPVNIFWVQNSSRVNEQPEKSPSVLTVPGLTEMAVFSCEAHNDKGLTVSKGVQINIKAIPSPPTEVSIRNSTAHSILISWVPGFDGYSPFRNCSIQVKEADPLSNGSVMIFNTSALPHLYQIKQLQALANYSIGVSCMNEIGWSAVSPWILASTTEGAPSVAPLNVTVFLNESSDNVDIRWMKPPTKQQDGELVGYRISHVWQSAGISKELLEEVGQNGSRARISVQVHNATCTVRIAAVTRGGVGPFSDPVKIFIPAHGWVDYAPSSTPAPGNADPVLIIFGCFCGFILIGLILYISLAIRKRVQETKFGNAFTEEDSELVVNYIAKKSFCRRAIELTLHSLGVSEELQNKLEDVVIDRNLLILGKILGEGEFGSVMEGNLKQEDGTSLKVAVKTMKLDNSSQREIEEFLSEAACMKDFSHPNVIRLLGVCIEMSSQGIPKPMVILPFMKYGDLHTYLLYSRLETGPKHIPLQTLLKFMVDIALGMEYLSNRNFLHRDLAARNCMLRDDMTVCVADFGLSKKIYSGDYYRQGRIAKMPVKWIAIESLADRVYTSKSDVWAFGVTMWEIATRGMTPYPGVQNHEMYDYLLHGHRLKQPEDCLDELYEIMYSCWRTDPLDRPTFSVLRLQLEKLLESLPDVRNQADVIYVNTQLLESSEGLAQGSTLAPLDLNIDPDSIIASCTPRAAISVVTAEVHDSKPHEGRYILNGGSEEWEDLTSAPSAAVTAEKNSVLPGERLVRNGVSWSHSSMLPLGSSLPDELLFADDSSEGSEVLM
Procedure, shortened: as §1

| IC50 (AXL) | IC50 (MERTK) | FLT3/Mer ratio (FLT3 IC50/Mer IC50) (MERTK) | Structure (SMILES) |
| --- | --- | --- | --- |
| 100 to 1000 nM | ≤ 100 nM | +++ (“+++” represents a ratio of >100) | COC[C@H](C)Nc1ncc2c([C@H]3CC[C@@H](C(=O)N4CC5(COC5)C4)CC3)cc([C@H]3CC[C@H](O)CC3)n2n1 [Compound 579] |
| ≤ 100 nM | ≤ 100 nM | +++ (“+++” represents a ratio of >100) | C[C@@H](CC(F)(F)F)Nc1ncc2c(-c3ccnc([S@](C)(=N)=O)c3)cc([C@H]3CC[C@H](O)CC3)n2n1 [Compound 580] |
| ≤ 100 nM | ≤ 100 nM | +++ (“+++” represents a ratio of >100) | C[C@@H](CC(F)(F)F)Nc1ncc2c(-c3ccnc([S@@](C)(=N)=O)c3)cc([C@H]3CC[C@H](O)CC3)n2n1 [Compound 581] |
| ≤ 100 nM | ≤ 100 nM | +++ (“+++” represents a ratio of >100) | C[C@@H](CC(F)(F)F)Nc1ncc2c(-c3cncc([S@](C)(=N)=O)c3)cc([C@H]3CC[C@H](O)CC3)n2n1 [Compound 582] |
| ≤ 100 nM | ≤ 100 nM | +++ (“+++” represents a ratio of >100) | C[C@@H](CC(F)(F)F)Nc1ncc2c(-c3cncc([S@@](C)(=N)=O)c3)cc([C@H]3CC[C@H](O)CC3)n2n1 [Compound 583] |
| ≤ 100 nM | ≤ 100 nM | +++ (“+++” represents a ratio of >100) | COC[C@H](C)Nc1ncc2c(-c3ccnc(C(F)(F)F)c3)cc([C@H]3CC[C@H](O)CC3)n2n1 [Compound 584] |
| ≤ 100 nM | ≤ 100 nM | +++ (“+++” represents a ratio of >100) | COC[C@H](C)Nc1ncc2c(-c3cnn(C(C)(C)C(=O)N4CCO[C@@H](C(C)(C)O)C4)c3)cc([C@H]3CC[C@H](O)CC3)n2n1 [Compound 585] |
| ≤ 100 nM | ≤ 100 nM | +++ (“+++” represents a ratio of >100) | COC[C@H](C)Nc1ncc2c(-c3cnn(C(C)(C)C(=O)N4CCOC(C(C)(C)O)C4)c3)cc([C@H]3CC[C@H](O)CC3)n2n1 (stereo partly drawn) [Compound 586] |
| ≤ 100 nM | ≤ 100 nM | +++ (“+++” represents a ratio of >100) | COC[C@H](C)Nc1ncc2c(-c3cnn(C4COC4)c3)cc([C@@H]3CC[C@H](O)[C@H](C)C3)n2n1 [Compound 587] |
| ≤ 100 nM | ≤ 100 nM | +++ (“+++” represents a ratio of >100) | COC[C@H](C)Nc1ncc2c(-c3cnn(C4COC4)c3)cc([C@@H]3CC[C@@H](O)[C@H](C)C3)n2n1 [Compound 589] |
| ≤ 100 nM | ≤ 100 nM | +++ (“+++” represents a ratio of >100) | COC[C@H](C)Nc1ncc2c(-c3cnn(C(C)(C)C(=O)N4C[C@@H](C)N[C@@H](C)C4)c3)cc([C@H]3CC[C@@H](O)CC3)n2n1 [Compound 591] |
| ≤ 100 nM | ≤ 100 nM | +++ (“+++” represents a ratio of >100) | C[C@@H](COC(F)F)Nc1ncc2c(-c3cnn(C(C)(C)C(=O)N4CCN(C)CC4)c3)cc([C@H]3CC[C@H](O)CC3)n2n1 [Compound 593] |
| ≤ 100 nM | ≤ 100 nM | +++ (“+++” represents a ratio of >100) | COC[C@H](C)Nc1ncc2c(-c3cnn(C(C)(C)C(=O)N4CCOCC4)c3)cc([C@@H]3CCc4cn[nH]c4C3)n2n1 [Compound 594] |

Continued, compound first:

| Structure (SMILES) | IC50 (AXL) | IC50 (MERTK) | FLT3/Mer ratio (FLT3 IC50/Mer IC50) (MERTK) |
| --- | --- | --- | --- |
| CCS(=O)(=O)N1CC(CC#N)(n2cc(-c3cc([C@H]4CC[C@H](O)CC4)n4nc(N[C@@H](C)COC)ncc34)cn2)C1 [Compound 567] | ≤ 100 nM | ≤ 100 nM | +++ (“+++” represents a ratio of >100) |
| CC[C@]1(O)CC[C@H](c2cc(-c3ccnc(N4CCOCC4)c3)c3cnc(N[C@@H](C)COC)nn32)CC1 [Compound 568] | ≤ 100 nM | ≤ 100 nM | +++ (“+++” represents a ratio of >100) |
| COC[C@H](C)Nc1ncc2c(-c3cnn(C4COC4)c3)cc([C@@H]3CC[C@@H](O)C(C)(C)C3)n2n1 [Compound 570] | 100 to 1000 nM | ≤ 100 nM | ++ (“++” represents a ratio of between 10 and 100) |
| COC[C@H](C)Nc1ncc2c(-c3cnn(C4COC4)c3)cc([C@@H]3CC[C@H](O)C(C)(C)C3)n2n1 [Compound 571] | 100 to 1000 nM | ≤ 100 nM | ++ (“++” represents a ratio of between 10 and 100) |
| COC[C@H](C)Nc1ncc2c(-c3cncc([S@](C)(=N)=O)c3)cc([C@H]3CC[C@@H](O)CC3)n2n1 [Compound 572] | 100 to 1000 nM | ≤ 100 nM | +++ (“+++” represents a ratio of >100) |
| COC[C@H](C)Nc1ncc2c(-c3cncc([S@@](C)(=N)=O)c3)cc([C@H]3CC[C@H](O)CC3)n2n1 [Compound 573] | 100 to 1000 nM | ≤ 100 nM | +++ (“+++” represents a ratio of >100) |
| COC[C@H](C)Nc1ncc2c(-c3ccnc([S@@](C)(=N)=O)c3)cc([C@H]3CC[C@H](O)CC3)n2n1 [Compound 574] | 100 to 1000 nM | ≤ 100 nM | +++ (“+++” represents a ratio of >100) |
| COC[C@H](C)Nc1ncc2c(-c3ccnc([S@](C)(=N)=O)c3)cc([C@H]3CC[C@H](O)CC3)n2n1 [Compound 575] | 100 to 1000 nM | ≤ 100 nM | +++ (“+++” represents a ratio of >100) |
| COC[C@H](C)Nc1ncc2c([C@H]3CC[C@H](C(C)=O)CC3)cc([C@H]3CC[C@H](O)CC3)n2n1 [Compound 576] | 100 to 1000 nM | ≤ 100 nM | +++ (“+++” represents a ratio of >100) |
| COC[C@H](C)Nc1ncc2c([C@H]3CC[C@@H](C(=O)N4CCC(F)(F)CC4)CC3)cc([C@H]3CC[C@H](O)CC3)n2n1 [Compound 577] | ≤ 100 nM | ≤ 100 nM | +++ (“+++” represents a ratio of >100) |
| COC[C@H](C)Nc1ncc2c([C@H]3CC[C@H](C(=O)N4CC5(COC5)C4)CC3)cc([C@H]3CC[C@H](O)CC3)n2n1 [Compound 578] | 100 to 1000 nM | ≤ 100 nM | +++ (“+++” represents a ratio of >100) |
| COC[C@H](C)Nc1ncc2c(-c3cnn(C4COC4)c3)cc([C@@H]3CC[C@H](O)[C@@H](C)C3)n2n1 [Compound 588] | 100 to 1000 nM | ≤ 100 nM | ++ (“++” represents a ratio of between 10 and 100) |
